These results are taken from patent publication US20250304990A1, “HERBICIDE RESISTANCE” (SYNGENTA CROP PROTECTION AG, priority 2021, published 2025).

Structures are written as SMILES.

Holding throughout (experiment): Dose response test, growth in 96-well plates
Holding throughout (format): cell-based, Chlorella fusca

One test deals with Cf-496-8. The conditions noted are these: Cf-496-8 (M278L_F279I); 2-fold dilutions from 100 ppm. The method, then:
(§1) Dose response tests with B5U were set-up in 96-well, flat bottomed plates. 200 μl medium was used in each well. 2 μl of 6 day old culture was added to each well, then 2 μl of DMSO or dilution of test compound were added to respective wells. 2-fold dilutions starting at 100 ppm were used per well. Plates were incubated at 25° C., 50 μmol/m^2/s, 16 hour photoperiod.
(§2) This was assessed by a visual inspection of growth in the 96-well plate. The inhibitor concentration at which no growth is observed is then defined as the LD.
(§3) Starting dose was 100 ppm and decreasing with 2-fold dilutions with C. fusca wt, the five HST mutants and the 10 compounds to which the wt is sensitive. Plates were incubated at 25° C., 50 μmol/m2/s, 16 hour photoperiod.

A further test relates to Cf-496-94. Conditions: Cf-496-94 (F275L); 2-fold dilutions from 100 ppm. As for the experimental part:
as §1, §2, §3

In another test the test system is Cf-496-28. Conditions: Cf-496-28 (V276A); 2-fold dilutions from 100 ppm. The method, then: as §1, §2, §3
A further test relates to Cf-496-19. Conditions: Cf-496-19 (F275I); 2-fold dilutions from 100 ppm. The method, then:
as §1, §2, §3

The test system of a further test is Cf-496-15. The conditions noted are these: Cf-496-15 (T277N); 2-fold dilutions from 100 ppm. As for the experimental part: as §1, §2, §3
A further test relates to Cf WT. Conditions: Cf WT; 2-fold dilutions from 100 ppm. As for the experimental part:
as §1, §2, §3

Take `Cc1nn(C)c(=O)c(-c2c(F)ccc(Cl)c2CCc2ccccc2C(F)(F)F)c1O` [B5m, 4-[3-chloro-6-fluoro-2-[2-[2-(trifluoromethyl)phenyl]ethyl]phenyl]-5-hydroxy-2,6-dimethyl-pyridazin-3-one]: the “dose response to HST inhibiting compounds” value with Cf-496-8 was above 100 ppm; in the test on Cf-496-94 it was above 100 ppm; in the test on Cf-496-28 it was above 100 ppm; in the test on Cf-496-19, above 100 ppm; in the test on Cf-496-15 it was above 100 ppm; in the test on Cf WT, 12.5 ppm.
Turning to `Cc1nn(C)c(=O)c(-c2c(F)ccc(Cl)c2CCc2ccc(F)cc2)c1OC(=O)C(C)C` [B5p, [5-[3-chloro-6-fluoro-2-[2-(4-fluorophenyl)ethyl]phenyl]-1,3-dimethyl-6-oxo-pyridazin-4-yl]2-methylpropanoate], the “dose response to HST inhibiting compounds” value is given as above 100 ppm in the test with Cf-496-8; above 100 ppm in the test with Cf-496-94; above 100 ppm with Cf-496-28; above 100 ppm in the test on Cf-496-19; above 100 ppm in the test with Cf-496-15; 25 ppm in the test with Cf WT.
